Test results reported in paper PMC8333425, “Discovery of a dual Ras and ARF6 inhibitor from a GPCR endocytosis screen” (Nature Communications, 2021).
Where “and” joins values, the source holds several entries; their conditions need not be identical. Equal entries are not always repeated.

Key:
AT1R = experiment: BRET recording of AT1R removal from the PM (AT1R-RlucII / rGFP-CAAX); format: cell-based, human; details: for AngII-promoted BRET, AT1R removal from the PM: Comp 21 50 μM, individual experiments
Description: HEK293SL cells were seeded at a density of 7.5 × 10^5 cells per 100-mm dish and 24 h later, transiently transfected as such. For receptor internalization experiments, cells were transfected with 0.12 μg AT1R-RlucII, B2R-RlucII, or β2AR-RlucII and 0.48 μg of either rGFP-CAAX (to assess removal from the PM) or rGFP-FYVE (to assess accumulation in the endosomes). For β-arrestin recruitment assays, cells were transfected with 0.48 μg of receptor-YFP along with 0.12 μg of β-arrestin-RlucII. For β-arrestin/AP-2 binding experiments, cells were transfected with 1 μg Flag-AT1R, 1 μg β2-Adaptin-YFP, and 0.12 μg β-arrestin2-RlucII. For G protein activation, cells were transfected with 3 μg of sp-Flag-AT1R along with either 4.5 μg of the Gαq-polycistronic BRET sensor or 0.24 μg of the Gαi3-RlucII and 0.6 μg of GFP10-Gγ2 and Gβ1 sensors or 0.12 μg PKN-RBD-RlucII and 0.48 μg of rGFP-CAAX. For PKC activation, cells were transfected with 3 μg of sp-Flag-AT1R and 0.18 μg of the PKC sensor. For GTPase activation experiments, cells were transfected with 1 μg Flag-AT1R, 0.48 μg of rGFP-CAAX, and either 0.12 μg of GGA3-PBD-RlucII, PAK-CRIB-RlucII or Raf-RBD-RlucII. For biosensor validation experiments, cells were additionally transfected with 500 ng Flag-K-Ras-WT, Flag-K-Ras-G12V, Flag-K-Ras-SOS-CAAX, HA-ARF6-WT, HA-ARF6-T27N, Myc-Rac1-WT, Myc-Rac1-Q61L or Myc-Rac1-T17N. For PI3K/Akt activation experiments, cells were transfected with 0.48 μg of rGFP-CAAX and 0.12 μg of Akt (PH)-RlucII. After 18 h of transfection, the media was replaced and cells were divided for subsequent experiments. Cells were detached and seeded onto poly-L-ornithine-coated 96-well flat white bottom plates (BrandTech Scientific) at a density of 2.5 × 10^4 cells per well in media. The next day, cells were washed once with Tyrode’s buffer (140 mM NaCl, 2.7 mM KCl, 1 mM CaCl2, 12 mM NaHCO3, 5.6 mM D-glucose, 0.5 mM MgCl2, 0.37 mM NaH2PO4, 25 mM HEPES, pH 7.4) and left in Tyrode’s buffer. For kinetics of β-arrestin recruitment or β-arrestin binding to receptor and AP-2 experiments, cells were serum starved for 30 min, pretreated with 21 (50 µM) or Barbadin (100 µM) for 30 min, stimulated with 100 nM AngII or 1 µM BK and BRET signals were monitored at indicated times using a Victor X Light plate reader (PerkinElmer). Coelenterazine H (final concentration of 5 µM) was added 3–5 min prior to BRET measurements. Filter set was 460/80 nm and 535/30 nm for detecting the RlucII Renilla luciferase (donor) and YFP (acceptor) light emissions, respectively. The BRET ratio was determined by calculating the ratio of the light emitted by YFP over the light emitted by the RlucII. For G protein activation, cells were serum starved, pretreated with compounds for 30 min, stimulated with 100 nM AngII for 2 min (Gαq, Gαi3, and Rho sensors) or 5 min (PKC sensor). For the kinetics of GTPase and PI3K/Akt activation, cells were serum starved, pretreated with 21 (50 µM) or Wortmannin (200 nM) for 30 min, stimulated with ligand (100 nM AngII or 100 ng/ml EGF) and BRET signals were monitored at indicated times. […] BRET signals were monitored using a Synergy2 (BioTek) microplate reader and coelenterazine 400a (final concentrations of 5 µM) added 3–5 min prior to BRET measurements. […] The BRET ratio was determined by calculating the ratio of the light emitted by rGFP/GFP10 over the light emitted by the RlucII.

Gαi3 = Gαi3 BRET sensor, AT1R-mediated; format: cell-based, human
Description: HEK293SL cells were seeded at a density of 7.5 × 10^5 cells per 100-mm dish and 24 h later, transiently transfected as such. For receptor internalization experiments, cells were transfected with 0.12 μg AT1R-RlucII, B2R-RlucII, or β2AR-RlucII and 0.48 μg of either rGFP-CAAX (to assess removal from the PM) or rGFP-FYVE (to assess accumulation in the endosomes). For β-arrestin recruitment assays, cells were transfected with 0.48 μg of receptor-YFP along with 0.12 μg of β-arrestin-RlucII. For β-arrestin/AP-2 binding experiments, cells were transfected with 1 μg Flag-AT1R, 1 μg β2-Adaptin-YFP, and 0.12 μg β-arrestin2-RlucII. […] For kinetics of β-arrestin recruitment or β-arrestin binding to receptor and AP-2 experiments, cells were serum starved for 30 min, pretreated with 21 (50 µM) or Barbadin (100 µM) for 30 min, stimulated with 100 nM AngII or 1 µM BK and BRET signals were monitored at indicated times using a Victor X Light plate reader (PerkinElmer). […] The BRET ratio was determined by calculating the ratio of the light emitted by YFP over the light emitted by the RlucII. […] For the kinetics of GTPase and PI3K/Akt activation, cells were serum starved, pretreated with 21 (50 µM) or Wortmannin (200 nM) for 30 min, stimulated with ligand (100 nM AngII or 100 ng/ml EGF) and BRET signals were monitored at indicated times. […]

## CC(C)C(=O)N1CCN(c2ccc(NC(=O)c3cc4ccccc4o3)cc2Cl)CC1 [Compound 21]
AT1R; 50 μM
  AngII-bound AT1R removal from the PM: slowed down and decreased the extent of AngII-bound AT1R removal from the PM
AT1R; time 0 min
  AngII-promoted BRET, AT1R removal from the PM: 0
AT1R; time 5 min
  AngII-promoted BRET, AT1R removal from the PM: -0.084 and -0.3663 and -0.1717 and -0.07933
AT1R; time 15 min
  AngII-promoted BRET, AT1R removal from the PM: -0.132 and -0.4823 and -0.452 and -0.243
AT1R; time 30 min
  AngII-promoted BRET, AT1R removal from the PM: -0.166 and -0.515 and -0.398 and -0.3753
Gαi3; 50 μM
  Gαi3 engagement by AT1R (BRET sensor): lack of inhibitory effects
Gαi3; listed as Comp 21
  Gi3 BRET sensor signal (S_Fig.4b), single experiments: 0.11 and 0.122
